# Where two headings read alike, the source gives them in different places.
# Test: Reporter assay (No. 1), cell number reporter gene (sea pansy luciferase, pRL-TK), clone of Example 2
# Format: cell-based
# Settings: mouse, hepa1c1c7 cells, about 40 hours, ratio to 0 pg/ml, read-out: Amount of luminescence by sea pansy luciferase (from pRL-TK) Ratio
# Description: For the measured values of the amount of expression of the cell number reporter gene, a ratio is determined of the measured value in the test substance added group to the measured value in the only solvent added group (control group). When the ratio is, for example, in the range of 0.8 to 1.2, the measured value of the amount of expression of the ligand responsive reporter gene in the test substance added group is selected for evaluating the agonist or antagonist activity of the test substance against the ability of a ligand responsive transcriptional regulatory factor to promote transcription. When the ratio takes a small value such as smaller than 0.8, for example, it is possible that the test substance has cytotoxicity. In contrast, when the ratio takes a large value such as greater than 1.2, for example, it is possible that the test substance has activity against the transcriptional regulatory system of a gene without mediation of a ligand responsive transcriptional regulatory factor. However, the range of this ratio suitable for selecting the measured value of the amount of expression of the […] reporter gene may vary depending on certain properties of the present cells used and the conditions of measurement, and it is not limited to the above examples of numerical values.
# Separately, plasmid pGV-Ya-XREx5 (ligand responsive reporter gene containing plasmid) constructed in Example 1 was digested with Bam HI. Further, plasmid pRL-TK (cell number reporter gene containing plasmid; marketed by Toyo Ink) containing the sea pansy luciferase gene used as the cell number reporter gene was digested with Bam HI, and neomycin resistance (aminoglycoside phosphotransferase) gene containing plasmid pRc/RSV (available from INVITROGEN) was digested with Hind III. These three digested plasmids, i.e., Bam HI digested pGV-Ya-XREx5 (2.8 µg), Bam HI digested pRL-TK (2.8 µg), and Hind III digested pRc/RSV (0.5 µg), were then mixed with 300 µl of αMEM medium (mixture A), while 36 µl of lipofectin (available from GIBCO-BRL) was mixed with 300 µl of αMEM medium (mixture B). After being left at room temperature for 30 minutes, mixtures A and B were combined together and left at room temperature for 10 minutes. The Hepa1clc7 cells cultured overnight as described above were then washed once with αMEM medium, to which there was added a solution prepared by adding and mixing additional 5.4 ml of αMEM medium to the above mixture (A + B). Culturing of the resulting mixture was carried out for 5 hours. The medium was then replaced with 10% serum containing αMEM medium, followed by further culturing overnight. Subsequently, the cells were scratched from the petri dishes and collected, and the collected cells were suspended in 10% serum containing αMEM medium to have the total volume of 100 ml. The resulting cell suspension was plated on 96 well plates at a ratio of 100 µl/well. After these plates were cultured overnight, a medium prepared by dissolving geneticin (hereinafter referred to as "G418") in 10% serum containing αMEM medium to have a concentration of 1.6 mg/ml was added at a ratio of 100 µl/well (G418 final concentration 800 µg/ml). Culturing was further continued for 3 weeks, during which the medium was replaced with 10% serum containing αMEM medium containing 800 µg/ml G418 at a rate of once per week. The volume of the medium was set at 200 µl/well. After said 3 weeks, cells were scratched from the wells in which colony formation had been observed, and collected (for 192 wells), and the collected cells were divided into three and independently plated on different plates, followed by continuous culturing for 4 days. To the first plate, only DMSO was added (solvent control), and to the second plate, 3-methylcholanthrene (hereinafter referred to as "3-MC") dissolved in DMSO was added so that the final concentration of 3-MC in the second plate came to 10 µM per well. The first and second plates were then cultured overnight. […]
structure (smiles),measurement,setting,value
"Clc1cc2c(cc1Cl)Oc1cc(Cl)c(Cl)cc1O2 [TCDD, 2,3,7,8-tetrachlorodibenzo-p-dioxin]",viability at 40 h,final conc. 0.02 pg/ml,100%
same,viability at 40 h,final conc. 0.2 pg/ml,90%
same,viability at 40 h,final conc. 2 pg/ml,90%
same,viability at 40 h,final conc. 20 pg/ml,80%
same,viability at 40 h,final conc. 200 pg/ml,70%
same,viability at 40 h,final conc. 2000 pg/ml,60%
same,viability at 40 h,final conc. 20000 pg/ml,60%

# Reference: EP1148124A1 (priority 1999, dated 2000)
